Reference: article PMC2099433, “The binding site for neohesperidin dihydrochalcone at the human sweet taste receptor” (BMC Structural Biology, 2007)
Where a SMILES comes first, the peptide text is derived from it.

Biological target: T1, hTAS1R2/hTAS1R3 (Homo sapiens, UniProt Q7RTX0+Q8TE23)
T1 construct: expressed in transfected cells; host or cells: HEK293T cells stably expressing G16Gust44
T1 sequence (Q8TE23 20-839): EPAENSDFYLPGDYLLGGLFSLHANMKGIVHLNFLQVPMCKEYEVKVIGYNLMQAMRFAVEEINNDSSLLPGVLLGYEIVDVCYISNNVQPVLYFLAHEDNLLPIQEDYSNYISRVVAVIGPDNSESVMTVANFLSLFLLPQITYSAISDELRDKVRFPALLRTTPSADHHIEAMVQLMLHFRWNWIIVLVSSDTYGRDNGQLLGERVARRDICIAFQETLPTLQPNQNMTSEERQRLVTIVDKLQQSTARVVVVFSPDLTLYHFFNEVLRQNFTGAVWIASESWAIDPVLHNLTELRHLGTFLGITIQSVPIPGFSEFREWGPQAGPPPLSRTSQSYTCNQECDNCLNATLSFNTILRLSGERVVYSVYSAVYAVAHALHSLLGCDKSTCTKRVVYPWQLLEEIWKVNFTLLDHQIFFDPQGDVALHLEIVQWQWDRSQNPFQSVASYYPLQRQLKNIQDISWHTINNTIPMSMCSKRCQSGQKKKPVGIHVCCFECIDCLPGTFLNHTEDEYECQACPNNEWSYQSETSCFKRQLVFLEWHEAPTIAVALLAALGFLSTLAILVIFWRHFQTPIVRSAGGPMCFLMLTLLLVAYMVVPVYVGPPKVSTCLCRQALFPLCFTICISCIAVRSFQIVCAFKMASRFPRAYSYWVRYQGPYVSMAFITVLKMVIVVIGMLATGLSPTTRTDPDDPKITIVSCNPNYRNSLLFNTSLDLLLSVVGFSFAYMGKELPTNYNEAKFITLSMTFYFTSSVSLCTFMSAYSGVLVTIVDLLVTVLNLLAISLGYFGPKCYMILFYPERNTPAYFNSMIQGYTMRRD
T1 sequence (Q7RTX0 21-852): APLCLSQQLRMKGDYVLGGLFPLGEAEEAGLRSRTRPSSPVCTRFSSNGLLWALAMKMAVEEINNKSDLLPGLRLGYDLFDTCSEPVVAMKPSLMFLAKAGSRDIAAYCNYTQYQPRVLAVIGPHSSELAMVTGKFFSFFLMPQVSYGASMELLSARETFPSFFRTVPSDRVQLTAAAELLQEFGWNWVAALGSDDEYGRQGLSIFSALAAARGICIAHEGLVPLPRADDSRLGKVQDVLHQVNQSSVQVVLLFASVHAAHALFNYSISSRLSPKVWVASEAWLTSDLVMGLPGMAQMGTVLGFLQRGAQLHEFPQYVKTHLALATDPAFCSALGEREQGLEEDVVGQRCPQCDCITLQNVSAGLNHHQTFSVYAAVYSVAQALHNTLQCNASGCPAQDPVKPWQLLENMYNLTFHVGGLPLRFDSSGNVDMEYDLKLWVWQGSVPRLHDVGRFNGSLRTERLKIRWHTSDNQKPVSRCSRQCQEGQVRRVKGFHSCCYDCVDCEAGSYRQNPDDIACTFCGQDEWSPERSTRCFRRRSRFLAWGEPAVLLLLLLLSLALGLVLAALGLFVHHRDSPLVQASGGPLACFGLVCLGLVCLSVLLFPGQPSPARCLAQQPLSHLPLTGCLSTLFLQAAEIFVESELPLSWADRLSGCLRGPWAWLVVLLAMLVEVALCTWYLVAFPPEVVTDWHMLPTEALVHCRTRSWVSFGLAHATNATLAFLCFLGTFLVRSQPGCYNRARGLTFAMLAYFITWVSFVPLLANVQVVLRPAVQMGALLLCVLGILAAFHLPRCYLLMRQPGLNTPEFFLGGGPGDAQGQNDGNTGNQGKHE
Test: Calcium response (FLIPR) of HEK293T-G16Gust44 cells, wild type receptor
Assay type: cell-based
Conditions: for EC50 / Emax: wt receptor; for EC50: average ± SD, at least three experiments; for Emax: read-out: maximal signal (% of wt)
Description: In order to elucidate the putative binding site for NHDC, we cotransfected mixtures of plasmid DNAs for the rat and human TAS1R2 and TAS1R3 receptor subunits in HEK293T cells stably expressing the chimeric G-protein G16Gust44 and measured cellular calcium responses by fluorometry following bath application of various sweet tasting compounds. […].
The cDNAs for TAS1Rs tagged at the C-terminus with the herpes simplex virus glycoprotein D (HSV) were transiently transfected into HEK293T cells stably expressing the chimeric G-protein subunit G16Gust44 [44] using Lipofectamine 2000 (Invitrogen, Carlsbad, CA) according to the manufacturer's protocol. 3–4 hours after transfection, DMEM was replaced by low-glucose DMEM supplemented with GlutaMAX and 10% dialyzed FBS (Invitrogen, Carlsbad, CA). 24 h post transfection, cells were loaded for 1 h with the calcium sensitive dye Fluo4-AM (2 μg/ml in DMEM, Molecular Probes, Carlsbad, CA). Cells were washed 3x in solution C1 (130 mM NaCl, 5 mM KCl, 10 mM Hepes, 2 mM CaCl2, and 5 mM Glucose, pH 7,4). We monitored calcium mobilization following receptor stimulation with sweet tastants by an automated fluorometric imaging plate reader (FLIPR, Molecular Devices, Sunnyvale, CA). Compounds used as stimuli (Sigma-Aldrich, St. Louis, MO; Merck, Whitehouse Station, NJ) were dissolved in C1 solution. All data were collected from at least three independent experiments carried out in duplicate. The obtained calcium signals were corrected for the response of mock transfected cells and normalized to the fluorescence of cells prior to the application of the stimulus using ΔF/F = (F-F0)/F0. […]

| receptor activation (human sweet taste receptor) | EC50 [mM] | Emax [%] | SMILES |
| --- | --- | --- | --- |
| activates | 0.1 ± 0.06 | 100 | COc1ccc(CCC(=O)c2c(O)cc(O[C@@H]3O[C@H](CO)[C@@H](O)[C@H](O)[C@H]3O[C@@H]3O[C@@H](C)[C@H](O)[C@@H](O)[C@H]3O)cc2O)cc1O [NHDC, neohesperidin dihydrochalcone] |
|  | 1.3 ± 0.1 | 100 | COC(=O)[C@H](Cc1ccccc1)NC(=O)[C@@H](N)CC(=O)O [aspartame] (HELM PEPTIDE1{D.F.[CO[*:1]]}$$$$V2.0) |
|  | 1.9 ± 0.1 |  | O=S(=O)(O)NC1CCCCC1 [cyclamate] |
